Laboratory results: US20220380473A1, “ANTI-GAL3 ANTIBODIES AND USES THEREOF” (TrueBinding, Inc., priority 2019, published 2022)

Legend:
[1] = molecular target: T1, interaction between Gal3 and TIM-3 (Mus musculus, UniProt P16110); assay: Blocking ELISA, mouse Gal3 coated plate and mouse TIM-3 Fc; assay type: binding; conditions: mGal3 coated plate, mouse TIM-3 Fc
T1 construct: purchased BioLegend (mouse Gal3); R&D systems (mouse TIM-3 Fc)
Procedure: ELISA assays were also performed to test the interaction between Gal3 and TIM-3. 96 well ELISA plates (ThermoFisher Scientific) were coated with mouse Gal3 protein (BioLegend, San Diego, Calif.) in PBS or human Gal9 protein (R&D systems) in PBS or phosphatidylserine (PS) (Sigma) in ethanol and incubated at 4° C. for overnight. The plate was washed three times with TBST and then blocked with PBS buffer containing 2% BSA at room temperature for 1 hour. In FIG. 5A, different anti Gal3 antibodies, i.e. mGal3 polyclonal antibody (R&D systems), mAb IMT001 (also described in WO 2019/023247, hereby expressly incorporated by reference in its entirety), mAb M3/38 (Thermofisher Scientific) (FIG. 5A), were added to well that has been coated with Gal3. The antibodies were incubated for 10 minutes and mouse TIM-3 Fc were then added to the plates and incubated for an additional one-hour incubation. Plates were then washed for three times and followed by incubation with anti-human-IgG-HRP (Jackson ImmunoResearch) for 1 h at room temperature. The color was developed with TMB subtract (GeneTex, Irvine, Calif.) after three time washes with TBST and the reaction was terminated with 1N HCl. The optical density (OD) was read at 450 nm. The results were expressed as the average OD of duplicates±SD. […]

Gal9 binding to TIM-3 = molecular target: T2, Gal9 binding to TIM-3 (Homo sapiens, UniProt O00182); assay: Sugar-dependence ELISA, hGal9 coated plate and mouse TIM-3 Fc
T2 construct: purchased R&D systems
T2 sequence (O00182 whole entry): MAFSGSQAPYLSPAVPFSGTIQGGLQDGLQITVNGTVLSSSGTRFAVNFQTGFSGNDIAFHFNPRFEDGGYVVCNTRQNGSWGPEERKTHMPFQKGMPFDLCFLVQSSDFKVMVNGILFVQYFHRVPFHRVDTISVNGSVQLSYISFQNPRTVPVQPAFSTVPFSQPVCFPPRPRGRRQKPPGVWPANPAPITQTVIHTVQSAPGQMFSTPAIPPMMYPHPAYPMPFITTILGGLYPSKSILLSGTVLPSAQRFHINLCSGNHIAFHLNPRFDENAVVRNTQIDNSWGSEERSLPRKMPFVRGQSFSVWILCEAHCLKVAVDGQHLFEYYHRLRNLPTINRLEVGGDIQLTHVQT

T1 sequence (P16110 2-264 limits assumed): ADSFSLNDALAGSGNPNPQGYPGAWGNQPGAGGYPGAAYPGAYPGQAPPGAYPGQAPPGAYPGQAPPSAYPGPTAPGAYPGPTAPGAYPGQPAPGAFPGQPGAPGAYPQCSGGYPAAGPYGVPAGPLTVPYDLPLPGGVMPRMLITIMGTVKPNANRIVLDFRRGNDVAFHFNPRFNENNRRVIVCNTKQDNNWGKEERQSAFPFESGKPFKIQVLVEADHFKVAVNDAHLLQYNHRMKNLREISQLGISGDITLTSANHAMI

## OC[C@H]1O[C@@H](O[C@H]2[C@H](O)[C@@H](O)[C@@H](O)O[C@@H]2CO)[C@H](O)[C@@H](O)[C@H]1O [lactose, α-Lactose, reference compound]
[1]
  block of Gal3 binding to TIM-3: minimal
Gal9 binding to TIM-3; 25 mM α-Lactose present vs absent
  reduction in signal, Gal9-TIM-3 binding: more than 10 fold
Gal9 binding to TIM-3; 25 mM α-Lactose, hGal9 coated plate
  block of Gal9 binding to TIM-3: blocked
